Experimental data published in PubChem BioAssay (NCI).
Several values for one entry are separate records, joined by “and”; a condition that tells them apart may be missing. Identical values can stand only once.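 Assay format: 96-well plates, 48-hour exposure. The concentration for 50% growth inhibition is given as GI50. TGI: concentration producing complete growth inhibition.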

Key:
Assay in all cases: DTP human tumour cell line panel, 48 h
A498 renal = tested on: A498 renal
HCT-116 colon = tested on: HCT-116 colon
HL-60(TB) leukemia = tested on: HL-60(TB) leukemia
IGROV1 ovarian = tested on: IGROV1 ovarian
OVCAR-3 ovarian = tested on: OVCAR-3 ovarian
OVCAR-5 ovarian = tested on: OVCAR-5 ovarian
SK-MEL-2 melanoma = tested on: SK-MEL-2 melanoma
SN12C renal = tested on: SN12C renal
U251 CNS = tested on: U251 CNS
UACC-62 melanoma = tested on: UACC-62 melanoma

Row | SMILES | GI50 (A498 renal) | TGI (A498 renal) | GI50 (HCT-116 colon) | TGI (HCT-116 colon) | GI50 (HL-60(TB) leukemia) | TGI (HL-60(TB) leukemia) | GI50 (IGROV1 ovarian) | TGI (IGROV1 ovarian) | GI50 (OVCAR-3 ovarian) | TGI (OVCAR-3 ovarian) | GI50 (OVCAR-5 ovarian) | TGI (OVCAR-5 ovarian) | GI50 (SK-MEL-2 melanoma) | TGI (SK-MEL-2 melanoma) | GI50 (SN12C renal) | TGI (SN12C renal) | GI50 (U251 CNS) | TGI (U251 CNS) | GI50 (UACC-62 melanoma) | TGI (UACC-62 melanoma)
1 | Cc1nc2cc(Nc3nc(Nc4ccc(F)cc4)nc(-c4ccc(Cl)cc4)n3)ccc2n1Cc1ccccc1 | 4.54 µM | > 100 µM | 5.04 µM | > 100 µM | 3.28 µM | > 100 µM | 5.9 µM | > 100 µM | 7.91 µM | > 100 µM | 5.76 µM | > 100 µM | 4.07 µM | 41.1 µM | 46.4 µM | > 100 µM | 12.5 µM | > 100 µM | 6.3 µM | > 100 µM
2 | COc1ccc(-c2nn3ncccc3c2-c2ccnc(Nc3cccc(C(F)(F)F)c3)n2)cc1 | 4.41 µM | > 20.3 µM | 7.99 µM | > 25 µM | 8.74 µM | > 25 µM | 4.39 µM | > 20.2 µM | 8.36 µM | > 25 µM | 6.7 µM | > 25 µM | 8.11 µM | 21.3 µM | 8.03 µM | > 25 µM | 11.6 µM | > 25 µM | 7.86 µM | > 25 µM
3 | O=c1ncccn1C1OC(CO)C(O)C1F (stereo not drawn) |  | > 100 µM | > 100 µM | > 100 µM |  | > 100 µM |  | > 100 µM |  | > 100 µM |  | > 100 µM |  | > 100 µM |  | > 100 µM |  | > 100 µM | > 100 µM | > 100 µM
4 | COC12C=C/C(=C(/C(=O)OCc3csc(SC)n3)C(=O)CCCCCCCCC3(OC)C=C/C(=C(/C(=O)OCc4cnc(SC)s4)C(=O)CCCCCCCC1)O3)O2 (stereo not drawn) | 2.44 µM | 21.8 µM | 0.439 µM | 10.9 µM | 3.1 µM | > 100 µM | 3.89 µM | 83.6 µM | 2.74 µM | > 100 µM | 7.63 µM | > 100 µM | 3.69 µM | 16.6 µM | 3.63 µM | > 100 µM | 3.98 µM | 43.6 µM | 3.51 µM | 35.2 µM
5 | CCn1c(-c2nonc2N)nc2c(C#CC(C)(C)O)ncc(OC[C@@H]3CCCN3)c21 | 0.136 µM | 1.97 µM | 5.34 µM | 20.2 µM | 5.63 µM | 15 µM | 0.676 µM | > 25 µM | 2.86 µM | 9.22 µM | 10.6 µM | > 25 µM | 4.56 µM | 15 µM | 5.26 µM | > 25 µM | 3.03 µM | > 22 µM | 7.2 µM | > 25 µM
6 | Cc1cc([C@H](C)Nc2nccc(N3C(=O)OC[C@@H]3[C@H](C)F)n2)ncc1-c1ccnc(C(F)(F)F)c1 | 15.6 µM | 92.1 µM | 22.7 µM | > 100 µM | 35.7 µM | > 100 µM | 25.9 µM | > 100 µM | 36.3 µM | > 100 µM | > 100 µM | > 100 µM | 40.2 µM | > 100 µM | 44.5 µM | > 100 µM | 39.5 µM | > 100 µM | 21.7 µM | > 100 µM
7 | COc1ccc2c(c1)c(-c1cc(-c3cn(C)c4ccc(OC)cc34)[nH]n1)cn2C | > 100 µM | > 100 µM | > 100 µM | > 100 µM | > 100 µM | > 100 µM | > 100 µM | > 100 µM | > 100 µM | > 100 µM | > 100 µM | > 100 µM | > 100 µM | > 100 µM | > 100 µM | > 100 µM | > 100 µM | > 100 µM | > 100 µM | > 100 µM
8 | O=C1[C@H]2ON(c3ccccc3)C(c3cccc([N+](=O)[O-])c3)[C@H]2C(=O)N1c1ccc(Cc2ccc(N3C(=O)[C@@H]4ON(c5ccccc5)C(c5cccc([N+](=O)[O-])c5)[C@@H]4C3=O)cc2)cc1 (stereo partly drawn) |  | 97.5 µM |  | > 100 µM |  | > 100 µM |  | > 100 µM |  | > 100 µM |  | > 100 µM |  | > 100 µM |  | > 100 µM |  | > 100 µM |  | > 100 µM
9 | CCOc1cccc(/C=N/NC(=O)Cc2ccc(Nc3ccnc(C(F)(F)F)c3)cc2)c1O | 4.62 µM | 67 µM | 1.2 µM | 19.3 µM | 1.03 µM | 4.22 µM | 2.27 µM | > 100 µM | 0.394 µM | 30.4 µM | 32.6 µM | > 100 µM | 11.4 µM | 45 µM | 4.58 µM | > 100 µM | 1.58 µM | > 100 µM | 1.64 µM | 14.7 µM
10 | Nc1ccc2c(SCC(=O)Nc3ccccc3-c3ccccc3NC(=O)CSc3c4ccccc4nc4cc(N)ccc34)c3ccccc3nc2c1 |  | 65.9 µM |  | 64.5 µM |  | 36.6 µM |  | 83 µM |  | 70.4 µM |  | > 100 µM |  | 68 µM |  | > 87.2 µM |  | 66.5 µM |  | 56.5 µM
11 | O=C1c2c(O)ccc(O)c2C(=O)c2c(NCCNCCO)ccc(NCCNCCO)c21 | 0.0721 µM | 0.555 µM and 0.588 µM and 0.59 µM | 0.0451 µM | 0.327 µM and 1.23 µM and 0.858 µM | 0.0127 µM |  |  | 1.41 µM and 3.13 µM and 2.21 µM | 0.483 µM | 1.87 µM and 1.47 µM and 2.13 µM |  | 1.05 µM and 4.75 µM and 2.74 µM |  | 0.657 µM and 0.6 µM and 0.926 µM |  | 0.162 µM and 1.57 µM and 0.214 µM |  | 0.151 µM and 0.499 µM and 0.376 µM |  | 0.218 µM and 0.756 µM and 0.595 µM
12 | CC(=O)c1c(Nc2ccc(F)c(F)c2F)[nH]c2c(F)cc(F)cc2c1=O | 0.206 µM | 0.575 µM | 0.291 µM | 5.57 µM | 0.372 µM |  | 0.396 µM | > 47.4 µM | 0.311 µM | 11.6 µM | 0.552 µM | 25.4 µM | 0.322 µM | 1.35 µM | 0.277 µM | 3.45 µM | 0.343 µM | 20.1 µM | 0.233 µM | 0.836 µM
13 | OCCN(CCO)c1ncnc2c1sc(=S)n2-c1ccccc1 |  | > 100 µM |  | > 100 µM |  | > 100 µM |  | > 100 µM |  | > 100 µM |  | > 100 µM |  | > 100 µM |  | > 100 µM |  | > 100 µM |  | > 100 µM
14 | C1=CC=C2NCCSCCNC3=CC=CC=CC3=NCCSCCN=C2C=C1 |  | > 100 µM |  | > 100 µM |  | > 100 µM |  | > 100 µM |  | > 100 µM |  | > 100 µM |  | > 100 µM |  | > 100 µM |  | > 100 µM |  | > 100 µM
15 | Oc1cccc(-c2nc(N3CCOCC3)c3oc4ncccc4c3n2)c1 | 1.96 µM | 9.35 µM and 3.98 µM | 0.53 µM and 0.426 µM | > 100 µM | 0.117 µM and 0.364 µM |  | 0.327 µM and 0.425 µM | 1.47 µM and 2.23 µM | 0.164 µM and 0.213 µM | 0.811 µM and 3.24 µM | 2.38 µM and 2.84 µM | > 26.6 µM | 0.147 µM and 0.295 µM | 0.641 µM and 1.92 µM | 0.0923 µM and 0.136 µM | > 100 µM | 0.346 µM and 0.384 µM | > 44.5 µM and 10.9 µM | 1.05 µM and 0.471 µM | 3.03 µM and 1.64 µM
16 | COC(=O)C1=C(C(=O)OC)N(C(C)C)[C@H]2C(C(=O)OC)=C(C(=O)OC)N(C(C)C)[C@@H]12 |  | > 100 µM |  | > 100 µM |  | > 100 µM |  | > 100 µM |  | > 100 µM |  | > 100 µM |  | > 100 µM |  | > 100 µM |  | > 100 µM |  | > 100 µM
17 | CC(C)(C)OC(=O)n1c(Cl)c(C(=O)N=C=S)c2ccccc21 | 92.6 µM | > 100 µM | 55.7 µM | > 100 µM | 24.4 µM | > 100 µM | 9.65 µM | 34.7 µM | 25.6 µM | 72.9 µM | 23 µM | 94.3 µM | 24.7 µM | 75.8 µM | 67.1 µM | > 100 µM | 34.2 µM | > 100 µM | 28.8 µM | 79 µM
18 | O=C1Cc2ccccc2CCc2ccccc21 |  | > 100 µM |  | > 100 µM |  | > 100 µM |  | > 100 µM |  | > 100 µM |  | > 100 µM |  | > 100 µM |  | > 100 µM |  | > 100 µM |  | > 100 µM
19 | COc1ccc(-c2cn(-c3cc(OC)c(OC)c(OC)c3)c(=O)n2-c2ccccc2)cc1 | > 100 µM | > 100 µM | > 100 µM | > 100 µM | 28.1 µM | > 100 µM | 27.6 µM | > 100 µM | 43.1 µM | > 100 µM | > 100 µM | > 100 µM | > 100 µM | > 100 µM | 84.3 µM | > 100 µM | > 100 µM | > 100 µM | 53 µM | > 100 µM
20 | O=c1/c(=C/c2ccc3c(c2)OCO3)sc2nnc(Cc3ccccc3)n12 |  | > 100 µM |  | > 100 µM |  | > 100 µM |  | > 100 µM |  | > 100 µM |  | > 100 µM |  | > 100 µM |  | > 100 µM |  | > 100 µM |  | > 100 µM
21 | N#Cc1c(-c2ccc(Cl)cc2)csc1NC(=O)Nc1cccc(C(F)(F)F)c1 | 1.79 µM | 4.3 µM | 2.33 µM | 8.44 µM | 2.43 µM | 6.69 µM | 3.51 µM | 14.2 µM | 2.73 µM | 11.2 µM | 2.98 µM | 12.9 µM | 2 µM | 4.57 µM | 2.93 µM | 10.7 µM | 2.09 µM | 5.46 µM | 2.92 µM | 12 µM
22 | CCOc1ccccc1NC(=O)CCC(=O)NN |  | > 100 µM |  | > 100 µM |  | > 100 µM |  | > 100 µM |  | > 100 µM |  | > 100 µM |  | > 100 µM |  | > 100 µM |  | > 100 µM |  | > 100 µM
23 | O=C(Nc1cccc(Cl)c1)c1cc(Cl)ccc1O | 0.256 µM | 0.764 µM | 0.562 µM | 2.12 µM | 0.561 µM | 3.6 µM | 1.61 µM | > 58 µM | 1.04 µM | > 100 µM | 3.48 µM | > 100 µM | 0.294 µM | 0.918 µM | 0.491 µM | 4.15 µM | 0.841 µM | > 38.2 µM | 0.282 µM | 1.21 µM
